# Measured values as given in PubChem BioAssay AID1963977 (Molecular Pharmacology Branch, DTP, NCI, 2024).
# System: 624824-186-R-J3-PDC multicell spheroids, viability
# Test: Anticancer human tumor 624824-186-R-J3-PDC patient-derived colon adenocarcinoma cell line growth inhibition [PI3K]
# Settings: for IC50: curve of first compound; for viability, T/C: stronger effect = lower value
# Outline: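 Tumor cells were combined with HUVEC and MSCs into spheroids, then dosed with PI3K-inhibitor combinations over half-log ranges capped near clinical Cmax or 10 microM.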
# [1] = second compound 0.0316 µM, first compound 0.0316 µM
# [2] = second compound 0.0316 µM, first compound 0.1 µM
# [3] = second compound 0.0316 µM, first compound 0.316 µM
# [4] = second compound 0.0316 µM, first compound 1 µM
# [5] = second compound 0.0316 µM, first compound 3.16 µM
# [6] = second compound 0.0316 µM, first compound 10 µM
# [7] = second compound 0.1 µM, first compound 0.0316 µM
# [8] = second compound 0.1 µM, first compound 0.1 µM
# [9] = second compound 0.1 µM, first compound 0.316 µM
# [10] = second compound 0.1 µM, first compound 1 µM
# [11] = second compound 0.1 µM, first compound 3.16 µM
# [12] = second compound 0.1 µM, first compound 10 µM
# [13] = second compound 0.316 µM, first compound 0.0316 µM
# [14] = second compound 0.316 µM, first compound 0.1 µM
# [15] = second compound 0.316 µM, first compound 0.316 µM
# [16] = second compound 0.316 µM, first compound 1 µM
# [17] = second compound 0.316 µM, first compound 3.16 µM
# [18] = second compound 0.316 µM, first compound 10 µM
# [19] = second compound 1 µM, first compound 0.0316 µM
# [20] = second compound 1 µM, first compound 0.1 µM
# [21] = second compound 1 µM, first compound 0.316 µM
# [22] = second compound 1 µM, first compound 1 µM
# [23] = second compound 1 µM, first compound 3.16 µM
# [24] = second compound 1 µM, first compound 10 µM
# [25] = second compound 3.16 µM, first compound 0.0316 µM
# [26] = second compound 3.16 µM, first compound 0.1 µM
# [27] = second compound 3.16 µM, first compound 0.316 µM
# [28] = second compound 3.16 µM, first compound 1 µM
# [29] = second compound 3.16 µM, first compound 3.16 µM
# [30] = second compound 3.16 µM, first compound 10 µM
# [31] = second compound 10 µM, first compound 0.0316 µM
# [32] = second compound 10 µM, first compound 0.1 µM
# [33] = second compound 10 µM, first compound 0.316 µM
# [34] = second compound 10 µM, first compound 1 µM
# [35] = second compound 10 µM, first compound 3.16 µM
# [36] = second compound 10 µM, first compound 10 µM
# 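Further: spheroids exposed to agents for seven days before luminescence read.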
# 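Wherever viability, T/C is given: luminescent signal used as a stand-in for spheroid viability; percent viability relative to DMSO vehicle control wells taken as 100%.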
compound,measurement,setting,value
CC(Cn1ccc(-c2ccc(C#N)c(Cl)c2)n1)NC(=O)c1cc(C(C)O)[nH]n1 (centres undefined) + CC(Nc1ncnc2nc[nH]c12)c1cc2cccc(Cl)c2c(=O)n1-c1ccccc1,IC50,second compound 0.0316 µM,> 10 µM
same,IC50,second compound 0.1 µM,> 10 µM
same,IC50,second compound 0.316 µM,> 10 µM
same,IC50,second compound 1 µM,> 10 µM
same,IC50,second compound 3.16 µM,> 10 µM
same,IC50,second compound 10 µM,> 10 µM
same,"viability, T/C",[1],104%
same,"viability, T/C",[2],97%
same,"viability, T/C",[3],98.8%
same,"viability, T/C",[4],99.6%
same,"viability, T/C",[5],105%
same,"viability, T/C",[6],109%
same,"viability, T/C",[7],104%
same,"viability, T/C",[8],102%
same,"viability, T/C",[9],95.3%
same,"viability, T/C",[10],104%
same,"viability, T/C",[11],108%
same,"viability, T/C",[12],97.7%
same,"viability, T/C",[13],103%
same,"viability, T/C",[14],103%
same,"viability, T/C",[15],103%
same,"viability, T/C",[16],104%
same,"viability, T/C",[17],115%
same,"viability, T/C",[18],117%
same,"viability, T/C",[19],102%
same,"viability, T/C",[20],111%
same,"viability, T/C",[21],100%
same,"viability, T/C",[22],115%
same,"viability, T/C",[23],99.6%
same,"viability, T/C",[24],113%
same,"viability, T/C",[25],96.3%
same,"viability, T/C",[26],101%
same,"viability, T/C",[27],112%
same,"viability, T/C",[28],97.1%
same,"viability, T/C",[29],109%
same,"viability, T/C",[30],104%
same,"viability, T/C",[31],93.2%
same,"viability, T/C",[32],99%
same,"viability, T/C",[33],94.2%
same,"viability, T/C",[34],88.2%
same,"viability, T/C",[35],91.8%
same,"viability, T/C",[36],95.6%
CC1(C)CCC(Nc2ncc(C(F)(F)F)c(-c3c[nH]c4c(P(C)(C)=O)c(C#N)ccc34)n2)CN1 (centres undefined) + CC(Nc1ncnc2nc[nH]c12)c1cc2cccc(Cl)c2c(=O)n1-c1ccccc1,IC50,second compound 0.0316 µM,5.14 µM
same,IC50,second compound 0.1 µM,5.36 µM
same,IC50,second compound 0.316 µM,5.34 µM
same,IC50,second compound 1 µM,5.19 µM
same,IC50,second compound 3.16 µM,5.01 µM
same,IC50,second compound 10 µM,3.65 µM
same,"viability, T/C",[1],99%
same,"viability, T/C",[2],85.7%
same,"viability, T/C",[3],92.2%
same,"viability, T/C",[4],92.5%
same,"viability, T/C",[5],83.8%
same,"viability, T/C",[6],3.64%
same,"viability, T/C",[7],115%
same,"viability, T/C",[8],89%
same,"viability, T/C",[9],89.2%
same,"viability, T/C",[10],99%
same,"viability, T/C",[11],89%
same,"viability, T/C",[12],3.93%
same,"viability, T/C",[13],99.2%
same,"viability, T/C",[14],92.4%
same,"viability, T/C",[15],82.2%
same,"viability, T/C",[16],85.1%
same,"viability, T/C",[17],88.1%
same,"viability, T/C",[18],4.29%
same,"viability, T/C",[19],90.8%
same,"viability, T/C",[20],86.2%
same,"viability, T/C",[21],87.3%
same,"viability, T/C",[22],95.5%
same,"viability, T/C",[23],84.8%
same,"viability, T/C",[24],3.92%
same,"viability, T/C",[25],79.5%
same,"viability, T/C",[26],82.5%
same,"viability, T/C",[27],78%
same,"viability, T/C",[28],80.9%
same,"viability, T/C",[29],82.3%
same,"viability, T/C",[30],4.17%
same,"viability, T/C",[31],66.5%
same,"viability, T/C",[32],63.2%
same,"viability, T/C",[33],63.2%
same,"viability, T/C",[34],60.9%
same,"viability, T/C",[35],57%
same,"viability, T/C",[36],3.67%
